From US20020137929A1, “1 - (3-heterocyclylphenyl) isothiourea, -isourea, -guanidine and -amidine herbicidal agents” (Intellectual Property Department, BASF Aktiengesellschaft, priority 1998, published 2002)

Experiments:
[1] = test system: ABUTH (Velvetleaf); experiment: Postemergence herbicidal evaluation; type: in vivo, Abutilon theophrasti; settings: postemergence
Method in brief: (§1)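 Rate range approx. 0.0156–0.500 kg/ha. Foliar application at 40 psi to ~2-week seedlings; surfactant 0.5% TWEEN 20 in 50/50 acetone/water. Evaluation 4–5 wk post-treatment by 0–9 visual injury score, means of replicate tests.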

[2] = test system: ECHORC (Watergrass (Calif.)); experiment: Preemergence weed control under flooded paddy conditions; type: in vivo, Echinochloa oryzoides; settings: rated 3-4 weeks after treatment
Method in brief: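 Silt loam, seeds in top 0.5 cm; flood held 1.5-3 cm; test cpd as acetone/water 50/50 into flood water, ~0.0313-0.500 kg/ha a.i.; greenhouse 3-4 wk; visual 0-9 score vs control.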

[3] = test system: CHEAL (Lambsquarters, Common); experiment: Preemergence herbicidal evaluation; type: in vivo, Chenopodium album; settings: rated 4-5 weeks after treatment
Method in brief: (§2)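 In this greenhouse assay, monocot and dicot seeds are planted in soil and treated prior to emergence with an aqueous acetone spray (about 0.0156-0.500 kg/ha). Plants are assessed visually against control on a 0-9 scale after 4-5 weeks.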

[4] = test system: IPOHE (Morningglory, Ivyleaf); experiment: Postemergence herbicidal evaluation; type: in vivo, Ipomoea hederacea; settings: postemergence
Method in brief: as §1

[5] = test system: TRZAWR (Wheat, Winter, cv Riband); experiment: Postemergence herbicidal evaluation; type: in vivo, Triticum aestivum; settings: postemergence
Method in brief: as §1

[6] = test system: SETVI (Foxtail, Green); experiment: Preemergence herbicidal evaluation; type: in vivo, Setaria viridis; settings: rated 4-5 weeks after treatment
Method in brief: as §2

[7] = test system: ORYSAT (Rice, Tebonnet); experiment: Preemergence herbicidal evaluation; type: in vivo, Oryza sativa, (L.) Tebonnet; settings: rated 4-5 weeks after treatment
Method in brief: as §2

[8] = test system: TRZAWR (Wheat, Winter, cv Riband); experiment: Preemergence herbicidal evaluation; type: in vivo, Triticum aestivum; settings: rated 4-5 weeks after treatment
Method in brief: as §2

[9] = test system: MOOVA (Monochoria); experiment: Preemergence weed control under flooded paddy conditions; type: in vivo, Monochoria vaginalis; settings: rated 3-4 weeks after treatment
Method in brief: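 Flooded-pot preemergence screen with silt loam and seeds in the upper 0.5 cm. Dose about 0.0313 to 0.500 kg/ha, delivered into flood water; visual 0-9 score after 3 to 4 weeks.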

[10] = test system: IPOHE (Morningglory, Ivyleaf); experiment: Preemergence herbicidal evaluation; type: in vivo, Ipomoea hederacea; settings: rated 4-5 weeks after treatment
Method in brief: as §2

[11] = test system: ECHCG (Barnyardgrass); experiment: Preemergence herbicidal evaluation; type: in vivo, Echinochloa crus-galli; settings: rated 4-5 weeks after treatment
Method in brief: as §2

[12] = rate 0.0625 kg/ha, rating scale 0-9
[13] = rate 0.1250 kg/ha, rating scale 0-9
[14] = rate 0.2500 kg/ha, rating scale 0-9

C#CC(C)N1C(=O)CSC1=Nc1cc(-n2c(=O)cc(C(F)(F)F)n(C)c2=O)c(F)cc1Cl (stereo not drawn) [Compound 165, 3-{4-Chloro-2-fluoro-5-{[3-(1-methyl-2-propynyl)-4-oxo-2-thiazolidinylidene]amino}phenyl}-1-methyl-6-(trifluoromethyl)-2,4(1H,3H)-pyrimidinedione]
herbicidal rating ABUTH ([1]; rate 0.0156 kg/ha): 9.0
herbicidal rating ABUTH ([1]; rate 0.0313 kg/ha): 9.0
herbicidal rating ABUTH ([1]; rate 0.0625 kg/ha): 9.0
herbicidal rating ABUTH ([1]; rate 0.1250 kg/ha): 9.0
herbicidal effect rating, ECHORC ([2]; 0.0313 kg/ha): 9.0
herbicidal effect rating, ECHORC ([2]; 0.0625 kg/ha): 9.0
herbicidal effect rating, ECHORC ([2]; 0.1250 kg/ha): 9.0
herbicidal effect rating, ECHORC ([2]; 0.2500 kg/ha): 9.0
Preemergence herbicidal rating CHEAL ([3]; 0.0156 kg/ha): 4.0
Preemergence herbicidal rating CHEAL ([3]; 0.0313 kg/ha): 9.0
Preemergence herbicidal rating CHEAL ([3]; 0.0625 kg/ha): 9.0
Preemergence herbicidal rating CHEAL ([3]; 0.1250 kg/ha): 9.0
Preemergence herbicidal rating CHEAL ([3]; 0.2500 kg/ha): 9.0
Preemergence herbicidal rating CHEAL ([3]; 0.5000 kg/ha): 9.0
herbicidal rating IPOHE ([4]; rate 0.0156 kg/ha): 9.0
herbicidal rating IPOHE ([4]; rate 0.0313 kg/ha): 9.0
herbicidal rating IPOHE ([4]; rate 0.0625 kg/ha): 9.0
herbicidal rating IPOHE ([4]; rate 0.1250 kg/ha): 9.0
herbicidal rating TRZAWR ([5]; rate 0.0156 kg/ha): 3.0
herbicidal rating TRZAWR ([5]; rate 0.0313 kg/ha): 3.0
herbicidal rating TRZAWR ([5]; rate 0.0625 kg/ha): 4.0
herbicidal rating TRZAWR ([5]; rate 0.1250 kg/ha): 5.0
Preemergence herbicidal rating SETVI ([6]; 0.0156 kg/ha): 0.0
Preemergence herbicidal rating SETVI ([6]; 0.0313 kg/ha): 6.0
Preemergence herbicidal rating SETVI ([6]; 0.0625 kg/ha): 6.0
Preemergence herbicidal rating SETVI ([6]; 0.1250 kg/ha): 9.0
Preemergence herbicidal rating SETVI ([6]; 0.2500 kg/ha): 9.0
Preemergence herbicidal rating SETVI ([6]; 0.5000 kg/ha): 9.0
Preemergence herbicidal rating ORYSAT ([7]; 0.0156 kg/ha): 0.0
Preemergence herbicidal rating ORYSAT ([7]; 0.0313 kg/ha): 0.0
Preemergence herbicidal rating ORYSAT ([7]; 0.0625 kg/ha): 0.0
Preemergence herbicidal rating ORYSAT ([7]; 0.1250 kg/ha): 1.0
Preemergence herbicidal rating ORYSAT ([7]; 0.2500 kg/ha): 3.0
Preemergence herbicidal rating ORYSAT ([7]; 0.5000 kg/ha): 5.0
Preemergence herbicidal rating TRZAWR ([8]; 0.0156 kg/ha): 0.0
Preemergence herbicidal rating TRZAWR ([8]; 0.0313 kg/ha): 0.0
Preemergence herbicidal rating TRZAWR ([8]; 0.0625 kg/ha): 0.0
Preemergence herbicidal rating TRZAWR ([8]; 0.1250 kg/ha): 1.0
Preemergence herbicidal rating TRZAWR ([8]; 0.2500 kg/ha): 2.0
Preemergence herbicidal rating TRZAWR ([8]; 0.5000 kg/ha): 4.0
herbicidal effect rating, MOOVA ([9]; 0.0313 kg/ha): 9.0
herbicidal effect rating, MOOVA ([9]; 0.0625 kg/ha): 9.0
herbicidal effect rating, MOOVA ([9]; 0.1250 kg/ha): 9.0
herbicidal effect rating, MOOVA ([9]; 0.2500 kg/ha): 9.0
Preemergence herbicidal rating IPOHE ([10]; 0.0156 kg/ha): 0.0
Preemergence herbicidal rating IPOHE ([10]; 0.0313 kg/ha): 0.0
Preemergence herbicidal rating IPOHE ([10]; 0.1250 kg/ha): 2.0
Preemergence herbicidal rating IPOHE ([10]; 0.2500 kg/ha): 9.0
Preemergence herbicidal rating IPOHE ([10]; 0.5000 kg/ha): 9.0
Preemergence herbicidal rating ECHCG ([11]; 0.0156 kg/ha): 0.0
Preemergence herbicidal rating ECHCG ([11]; 0.0313 kg/ha): 0.0
Preemergence herbicidal rating ECHCG ([11]; 0.0625 kg/ha): 0.0
Preemergence herbicidal rating ECHCG ([11]; 0.1250 kg/ha): 3.0
Preemergence herbicidal rating ECHCG ([11]; 0.2500 kg/ha): 6.0
Preemergence herbicidal rating ECHCG ([11]; 0.5000 kg/ha): 7.0

COc1cccc(CN2C(=O)CSC2=Nc2cc(-n3c(=O)cc(C(F)(F)F)n(C)c3=O)c(F)cc2Cl)c1 [Compound 137, 3-{4-Chloro-2-fluoro-5-{[3-(m-methoxybenzyl)-4-oxo-2-thiazolidinylidene]amino}phenyl}-1-methyl-6-(trifluoromethyl)-2,4(1H,3H)-pyrimidinedione]
herbicidal rating ABUTH ([1]; rate 0.0156 kg/ha): 9.0
herbicidal rating ABUTH ([1]; rate 0.0313 kg/ha): 9.0
herbicidal rating ABUTH ([1]; rate 0.0625 kg/ha): 9.0
herbicidal effect rating, ECHORC ([2]; 0.0313 kg/ha): 3.0
herbicidal effect rating, ECHORC ([2]; 0.0625 kg/ha): 3.0
herbicidal effect rating, ECHORC ([2]; 0.1250 kg/ha): 3.0
herbicidal effect rating, ECHORC ([2]; 0.2500 kg/ha): 5.0
Preemergence herbicidal rating CHEAL [3, 12]: 9.0
Preemergence herbicidal rating CHEAL [3, 13]: 9.0
Preemergence herbicidal rating CHEAL [3, 14]: 9.0
herbicidal rating IPOHE ([4]; rate 0.0156 kg/ha): 9.0
herbicidal rating IPOHE ([4]; rate 0.0313 kg/ha): 9.0
herbicidal rating IPOHE ([4]; rate 0.0625 kg/ha): 9.0
herbicidal rating TRZAWR ([5]; rate 0.0156 kg/ha): 3.5
herbicidal rating TRZAWR ([5]; rate 0.0313 kg/ha): 3.0
herbicidal rating TRZAWR ([5]; rate 0.0625 kg/ha): 4.5
Preemergence herbicidal rating SETVI [6, 12]: 0.0
Preemergence herbicidal rating SETVI [6, 13]: 0.0
Preemergence herbicidal rating SETVI [6, 14]: 2.0
Preemergence herbicidal rating ORYSAT [7, 12]: 0.0
Preemergence herbicidal rating ORYSAT [7, 13]: 0.0
Preemergence herbicidal rating ORYSAT [7, 14]: 0.0
Preemergence herbicidal rating TRZAWR [8, 12]: 0.0
Preemergence herbicidal rating TRZAWR [8, 13]: 0.0
Preemergence herbicidal rating TRZAWR [8, 14]: 0.0
herbicidal effect rating, MOOVA ([9]; 0.0313 kg/ha): 4.0
herbicidal effect rating, MOOVA ([9]; 0.0625 kg/ha): 5.0
herbicidal effect rating, MOOVA ([9]; 0.1250 kg/ha): 5.0
herbicidal effect rating, MOOVA ([9]; 0.2500 kg/ha): 8.0
Preemergence herbicidal rating IPOHE [10, 12]: 0.0
Preemergence herbicidal rating IPOHE [10, 13]: 0.0
Preemergence herbicidal rating IPOHE [10, 14]: 1.0
Preemergence herbicidal rating ECHCG [11, 12]: 0.0
Preemergence herbicidal rating ECHCG [11, 13]: 0.0
Preemergence herbicidal rating ECHCG [11, 14]: 0.0
